In brackets after ≈: the same amount, converted by molar mass. Activity calls are given as the source filed them. No cut-off for these calls is given here.
Key:
NCI-H358 [1] = test: Growth inhibition of human H358 cells expressing KRAS […] mutant measured after 3 days by Cell-titer Glo assay; assay type: functional; conditions: NCI-H358, 72 h, time 3 day
[2] = target: RAF proto-oncogene serine/threonine-protein kinase (Homo sapiens, UniProt P04049); test: Inhibition of human recombinant cRAF measured after 1 hr by TR-FRET assay
Cytochrome P450 3A4 [3] = target: T1, Cytochrome P450 3A4 (Homo sapiens, UniProt P08684); test: Inhibition of CYP3A4 in human liver microsomes using testosterone as substrate; design: species or system Microsome
[4] = Stability of compound in mouse liver microsomes assessed as half life; assay type: ADME, Microsome
Cytochrome P450 2C19 = Cytochrome P450 2C19 (Homo sapiens, UniProt P33261); test: Inhibition of CYP2C19 in human liver microsomes; assay type: ADME, Microsome
[5] = Hepatic clearance in rat liver microsomes; assay type: ADME, Microsome
[6] = Hepatic clearance in mouse liver microsomes; assay type: ADME, Microsome
NCI-H358 [7] = test: Effect on Erk signalling pathway in human H358 cells assessed as increase in Erk phosphorylation by HTRF assay; assay type: functional, cell-based
[8] = target: Voltage-gated inwardly rectifying potassium channel KCNH2 (Homo sapiens, UniProt Q12809); test: Inhibition of hERG; assay type: toxicity
Cytochrome P450 2D6 = Cytochrome P450 2D6 (Homo sapiens, UniProt P10635); test: Inhibition of CYP2D6 in human liver microsomes; design: species or system Microsome
[9] = Stability of compound in rat liver microsomes assessed as half life; assay type: ADME, Microsome
Cytochrome P450 1A2 = target: T2, Cytochrome P450 1A2 (Homo sapiens, UniProt P05177); test: Inhibition of CYP1A2 in human liver microsomes; assay type: ADME, Microsome
T2 sequence (P05177 whole entry): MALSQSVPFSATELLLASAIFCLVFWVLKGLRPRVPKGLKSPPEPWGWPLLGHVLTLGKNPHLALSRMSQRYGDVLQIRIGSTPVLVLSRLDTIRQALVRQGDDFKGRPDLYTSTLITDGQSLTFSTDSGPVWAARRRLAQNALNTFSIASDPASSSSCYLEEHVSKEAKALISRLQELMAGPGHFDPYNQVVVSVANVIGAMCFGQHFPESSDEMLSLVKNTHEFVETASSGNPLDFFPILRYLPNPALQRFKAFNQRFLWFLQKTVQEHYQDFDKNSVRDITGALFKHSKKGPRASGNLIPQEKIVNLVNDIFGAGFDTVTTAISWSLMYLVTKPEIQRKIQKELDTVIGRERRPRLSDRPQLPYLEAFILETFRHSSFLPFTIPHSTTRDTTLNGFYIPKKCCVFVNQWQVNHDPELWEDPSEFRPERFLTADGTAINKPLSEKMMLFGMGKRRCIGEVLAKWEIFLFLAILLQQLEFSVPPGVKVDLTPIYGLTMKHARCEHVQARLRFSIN

[10] = Hepatic clearance in human liver microsomes; assay type: ADME, Microsome
[11] = Stability of compound in Dog liver microsomes assessed as half life; assay type: ADME, Canis lupus familiaris, Microsome
Cytochrome P450 3A4 [12] = target: T1, Cytochrome P450 3A4; test: Inhibition of CYP3A4 in human liver microsomes using midazolam as substrate; design: species or system Microsome
Cytochrome P450 2C9 = Cytochrome P450 2C9 (Homo sapiens, UniProt P11712); test: Inhibition of CYP2C9 in human liver microsomes; assay type: ADME, Microsome
[13] = Hepatic clearance in dog liver microsomes; assay type: ADME, Canis lupus familiaris, Microsome
[14] = Stability of compound in human liver microsomes assessed as half life; assay type: ADME, Microsome
[15] = Solubility of compound in PBS at pH 7.4; assay type: physicochemical
[16] = Volume of distribution in rat at 1 mg/kg, iv by LC-MS/MS analysis; assay type: ADME, organism-based; conditions: in vivo
[17] = AUC(0 to t) in rat at 1 mg/kg, iv by LC-MS/MS analysis; assay type: ADME, organism-based; design: dose 1 mg/kg, route iv; conditions: in vivo
A-375 = test: Growth inhibition of human A375 cells expressing bRaf V600E mutant measured after 3 days by Cell-titer Glo assay; assay type: functional; conditions: A-375, 72 h, time 3 day
[18] = Oral bioavailability in mouse at 2 mg/kg by LC-MS/MS analysis; assay type: ADME, organism-based; conditions: in vivo
[19] = MRT (0 to infinity) in mouse at 2 mg/kg, po by LC-MS/MS analysis; assay type: ADME, organism-based; conditions: in vivo
[20] = Cmax in rat at 2 mg/kg, po by LC-MS/MS analysis; assay type: ADME, organism-based; design: dose 2 mg/kg, route po; conditions: in vivo
[21] = MRT (0 to infinity) in rat at 1 mg/kg, iv by LC-MS/MS analysis; assay type: ADME, organism-based; conditions: in vivo
[22] = Permeability of compound by PAMPA assay; assay type: ADME; conditions: read-out: permeability
[23] = Cmax in mouse at 2 mg/kg, po by LC-MS/MS analysis; assay type: ADME, organism-based; design: dose 2 mg/kg, route po; conditions: in vivo
[24] = Oral bioavailability in rat at 2 mg/kg by LC-MS/MS analysis; assay type: ADME, organism-based; conditions: in vivo
[25] = AUC(0 to t) in rat at 2 mg/kg, po by LC-MS/MS analysis; assay type: ADME, organism-based; design: dose 2 mg/kg, route po; conditions: in vivo
[26] = Half life in rat at 2 mg/kg, po by LC-MS/MS analysis; assay type: ADME, organism-based; conditions: in vivo
Calu-6 = test: Growth inhibition of human Calu-6 cells expressing KRAS Q61K mutant measured after 3 days by Cell-titer Glo assay; assay type: functional; conditions: Calu-6, 72 h, time 3 day
[27] = Half life in mouse at 1 mg/kg, iv by LC-MS/MS analysis; assay type: ADME, organism-based; conditions: in vivo
[28] = AUC(0 to t) in mouse at 1 mg/kg, iv by LC-MS/MS analysis; assay type: ADME, organism-based; design: dose 1 mg/kg, route iv; conditions: in vivo
[29] = MRT (0 to infinity) in rat at 2 mg/kg, po by LC-MS/MS analysis; assay type: ADME, organism-based; conditions: in vivo
[30] = Half life in rat at 1 mg/kg, iv by LC-MS/MS analysis; assay type: ADME, organism-based; conditions: in vivo
[31] = Tmax in mouse at 2 mg/kg, po by LC-MS/MS analysis; assay type: ADME, organism-based; conditions: in vivo
[32] = MRT (0 to infinity) in mouse at 1 mg/kg, iv by LC-MS/MS analysis; assay type: ADME, organism-based; conditions: in vivo
[33] = Volume of distribution in mouse at 1 mg/kg, iv by LC-MS/MS analysis; assay type: ADME, organism-based; conditions: in vivo
[34] = Clearance in rat at 1 mg/kg, iv by LC-MS/MS analysis; assay type: ADME, organism-based; conditions: in vivo
[35] = AUC(0 to t) in mouse at 2 mg/kg, po by LC-MS/MS analysis; assay type: ADME, organism-based; design: dose 2 mg/kg, route po; conditions: in vivo
[36] = target: Serine/threonine-protein kinase B-raf (Homo sapiens, UniProt P15056, V600E); test: Inhibition of human recombinant bRAF […] mutant measured after 1 hr by TR-FRET assay
[37] = Clearance in mouse at 1 mg/kg, iv by LC-MS/MS analysis; assay type: ADME, organism-based; conditions: in vivo
[38] = Half life in mouse at 2 mg/kg, po by LC-MS/MS analysis; assay type: ADME, organism-based; conditions: in vivo
[39] = Tmax in rat at 2 mg/kg, po by LC-MS/MS analysis; assay type: ADME, organism-based; conditions: in vivo
[40] = target: Serine/threonine-protein kinase B-raf (Homo sapiens, UniProt P15056); test: Inhibition of human recombinant wild-type bRAF measured after 1 hr by TR-FRET assay
Sequence of Serine/threonine-protein kinase B-raf (Homo sapiens, UniProt P15056) (P15056 whole entry): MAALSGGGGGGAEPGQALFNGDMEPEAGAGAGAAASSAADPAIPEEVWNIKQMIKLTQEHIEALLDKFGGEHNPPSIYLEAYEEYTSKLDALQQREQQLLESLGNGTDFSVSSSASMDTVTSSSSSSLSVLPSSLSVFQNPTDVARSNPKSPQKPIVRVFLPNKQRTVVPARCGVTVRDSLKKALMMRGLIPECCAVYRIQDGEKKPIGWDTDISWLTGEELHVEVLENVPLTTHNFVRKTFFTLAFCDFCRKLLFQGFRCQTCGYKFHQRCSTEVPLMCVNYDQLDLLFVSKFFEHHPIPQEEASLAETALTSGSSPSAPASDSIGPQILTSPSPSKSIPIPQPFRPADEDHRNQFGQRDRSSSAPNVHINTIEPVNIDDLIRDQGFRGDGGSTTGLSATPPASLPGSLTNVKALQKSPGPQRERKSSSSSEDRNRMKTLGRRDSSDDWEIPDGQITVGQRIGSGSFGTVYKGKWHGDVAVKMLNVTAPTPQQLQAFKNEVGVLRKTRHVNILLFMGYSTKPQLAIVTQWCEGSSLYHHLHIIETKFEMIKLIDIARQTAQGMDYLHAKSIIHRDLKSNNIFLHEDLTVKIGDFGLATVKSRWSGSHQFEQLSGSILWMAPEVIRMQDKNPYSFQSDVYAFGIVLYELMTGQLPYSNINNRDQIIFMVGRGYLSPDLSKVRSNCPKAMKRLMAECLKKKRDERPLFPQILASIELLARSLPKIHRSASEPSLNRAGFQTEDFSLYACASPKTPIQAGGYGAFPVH

T1 sequence (P08684 whole entry): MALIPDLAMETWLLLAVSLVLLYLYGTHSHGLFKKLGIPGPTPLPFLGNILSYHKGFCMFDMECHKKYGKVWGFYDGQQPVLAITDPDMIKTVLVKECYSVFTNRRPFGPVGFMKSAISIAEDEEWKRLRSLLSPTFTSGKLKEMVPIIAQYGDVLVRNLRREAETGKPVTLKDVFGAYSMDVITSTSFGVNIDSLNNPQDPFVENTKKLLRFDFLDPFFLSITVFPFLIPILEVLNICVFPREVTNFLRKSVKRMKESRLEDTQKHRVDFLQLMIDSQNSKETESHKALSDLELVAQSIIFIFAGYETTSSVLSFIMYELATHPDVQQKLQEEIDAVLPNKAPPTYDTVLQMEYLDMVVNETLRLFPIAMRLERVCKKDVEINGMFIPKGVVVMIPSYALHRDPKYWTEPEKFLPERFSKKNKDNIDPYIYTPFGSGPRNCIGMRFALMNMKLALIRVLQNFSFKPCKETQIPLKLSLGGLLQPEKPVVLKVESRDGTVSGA
Sequence of RAF proto-oncogene serine/threonine-protein kinase (P04049 whole entry): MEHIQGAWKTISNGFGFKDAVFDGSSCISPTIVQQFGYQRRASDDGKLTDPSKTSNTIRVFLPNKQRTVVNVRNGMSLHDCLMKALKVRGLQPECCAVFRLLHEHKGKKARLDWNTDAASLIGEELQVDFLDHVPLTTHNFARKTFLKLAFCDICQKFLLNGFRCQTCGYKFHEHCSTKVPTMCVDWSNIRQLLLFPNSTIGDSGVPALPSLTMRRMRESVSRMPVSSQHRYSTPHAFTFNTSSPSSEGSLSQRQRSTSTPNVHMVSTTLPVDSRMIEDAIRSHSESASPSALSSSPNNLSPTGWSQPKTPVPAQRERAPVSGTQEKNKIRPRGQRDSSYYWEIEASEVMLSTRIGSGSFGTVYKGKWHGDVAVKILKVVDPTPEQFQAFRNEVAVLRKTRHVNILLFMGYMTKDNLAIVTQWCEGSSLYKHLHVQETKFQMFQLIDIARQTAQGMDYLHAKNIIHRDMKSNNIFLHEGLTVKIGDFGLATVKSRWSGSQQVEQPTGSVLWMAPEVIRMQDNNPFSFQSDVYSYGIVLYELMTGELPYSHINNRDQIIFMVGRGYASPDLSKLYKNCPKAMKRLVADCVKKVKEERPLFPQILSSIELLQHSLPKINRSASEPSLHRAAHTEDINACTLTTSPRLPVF
Sequence of Cytochrome P450 2C9 (P11712 whole entry): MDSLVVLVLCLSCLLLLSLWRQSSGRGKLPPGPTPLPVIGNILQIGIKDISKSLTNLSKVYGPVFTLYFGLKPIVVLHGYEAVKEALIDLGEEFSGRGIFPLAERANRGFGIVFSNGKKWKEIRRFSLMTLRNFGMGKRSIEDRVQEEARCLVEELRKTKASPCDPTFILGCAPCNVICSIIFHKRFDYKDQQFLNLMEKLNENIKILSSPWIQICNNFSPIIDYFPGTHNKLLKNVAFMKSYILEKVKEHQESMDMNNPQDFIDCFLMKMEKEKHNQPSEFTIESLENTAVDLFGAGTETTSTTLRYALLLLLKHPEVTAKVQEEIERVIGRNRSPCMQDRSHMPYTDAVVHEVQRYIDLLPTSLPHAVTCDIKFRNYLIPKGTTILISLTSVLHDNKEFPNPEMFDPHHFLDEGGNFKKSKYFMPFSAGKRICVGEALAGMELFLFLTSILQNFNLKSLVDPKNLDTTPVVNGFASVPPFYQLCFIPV
Sequence of Voltage-gated inwardly rectifying potassium channel KCNH2 (Q12809 whole entry): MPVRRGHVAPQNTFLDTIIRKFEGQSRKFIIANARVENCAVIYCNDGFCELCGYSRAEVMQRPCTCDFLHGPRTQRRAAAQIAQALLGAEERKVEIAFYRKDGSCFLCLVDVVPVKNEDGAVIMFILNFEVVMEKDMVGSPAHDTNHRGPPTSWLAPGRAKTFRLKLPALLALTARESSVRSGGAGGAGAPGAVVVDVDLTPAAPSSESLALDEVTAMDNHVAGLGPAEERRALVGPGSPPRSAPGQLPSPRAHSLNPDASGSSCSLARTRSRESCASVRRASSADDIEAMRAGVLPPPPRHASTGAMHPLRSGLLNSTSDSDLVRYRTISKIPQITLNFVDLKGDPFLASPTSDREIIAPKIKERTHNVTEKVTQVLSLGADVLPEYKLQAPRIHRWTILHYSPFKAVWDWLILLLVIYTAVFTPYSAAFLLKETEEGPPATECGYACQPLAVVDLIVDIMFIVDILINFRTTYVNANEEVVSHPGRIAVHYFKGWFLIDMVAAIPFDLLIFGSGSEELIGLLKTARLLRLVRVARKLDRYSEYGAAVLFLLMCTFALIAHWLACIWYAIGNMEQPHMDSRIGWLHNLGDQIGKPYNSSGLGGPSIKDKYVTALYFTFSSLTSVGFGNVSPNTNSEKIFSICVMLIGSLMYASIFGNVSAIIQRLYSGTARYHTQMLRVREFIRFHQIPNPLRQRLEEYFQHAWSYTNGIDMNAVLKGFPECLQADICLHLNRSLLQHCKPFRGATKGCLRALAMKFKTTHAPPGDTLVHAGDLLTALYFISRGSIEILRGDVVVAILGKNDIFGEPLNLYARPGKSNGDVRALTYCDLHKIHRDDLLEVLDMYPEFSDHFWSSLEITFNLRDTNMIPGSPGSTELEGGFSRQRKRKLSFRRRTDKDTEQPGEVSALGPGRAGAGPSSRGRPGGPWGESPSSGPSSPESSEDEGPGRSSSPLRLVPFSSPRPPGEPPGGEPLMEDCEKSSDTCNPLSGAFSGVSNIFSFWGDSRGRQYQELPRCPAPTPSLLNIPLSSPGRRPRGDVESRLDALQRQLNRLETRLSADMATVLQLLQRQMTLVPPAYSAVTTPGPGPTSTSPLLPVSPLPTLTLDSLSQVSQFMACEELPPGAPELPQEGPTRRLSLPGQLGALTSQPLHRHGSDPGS
Sequence of Cytochrome P450 2D6 (P10635 whole entry): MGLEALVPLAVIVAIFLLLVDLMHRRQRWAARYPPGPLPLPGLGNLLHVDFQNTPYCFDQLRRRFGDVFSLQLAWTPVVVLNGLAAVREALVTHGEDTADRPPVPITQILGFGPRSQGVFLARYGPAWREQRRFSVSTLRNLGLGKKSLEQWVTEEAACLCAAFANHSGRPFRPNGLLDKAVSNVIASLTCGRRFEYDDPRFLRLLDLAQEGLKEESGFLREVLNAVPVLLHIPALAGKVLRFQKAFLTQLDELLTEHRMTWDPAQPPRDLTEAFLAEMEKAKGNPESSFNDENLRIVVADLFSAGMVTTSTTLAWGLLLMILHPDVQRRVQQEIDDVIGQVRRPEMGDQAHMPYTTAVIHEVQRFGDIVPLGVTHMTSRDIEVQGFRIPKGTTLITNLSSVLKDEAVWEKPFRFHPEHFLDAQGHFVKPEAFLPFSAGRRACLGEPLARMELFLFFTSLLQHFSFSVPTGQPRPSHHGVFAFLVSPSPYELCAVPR
Sequence of Cytochrome P450 2C19 (P33261 whole entry): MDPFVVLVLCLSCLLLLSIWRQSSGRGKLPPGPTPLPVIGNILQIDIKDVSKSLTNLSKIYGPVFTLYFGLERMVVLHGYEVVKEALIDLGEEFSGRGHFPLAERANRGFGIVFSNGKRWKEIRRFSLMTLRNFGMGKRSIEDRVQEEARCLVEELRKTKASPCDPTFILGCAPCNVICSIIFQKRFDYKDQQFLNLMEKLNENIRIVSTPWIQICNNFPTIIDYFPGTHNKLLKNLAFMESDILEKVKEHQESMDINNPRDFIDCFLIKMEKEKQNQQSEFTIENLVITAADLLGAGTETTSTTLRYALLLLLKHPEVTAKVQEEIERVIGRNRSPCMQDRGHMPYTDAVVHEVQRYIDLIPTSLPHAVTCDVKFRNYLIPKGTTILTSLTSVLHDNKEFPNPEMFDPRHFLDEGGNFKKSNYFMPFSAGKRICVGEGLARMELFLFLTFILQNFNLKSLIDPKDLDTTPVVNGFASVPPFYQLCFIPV

Cc1ccc(NC(=O)c2ccnc(C(F)(F)F)c2)cc1-c1ccc2c(c1)OC1(CCOCC1)C(=O)N2
GI50 (NCI-H358 [1]): 10 µM | IC50 [2]: 0.014 µM

Cc1ccc(NC(=O)c2ccnc(C(F)(F)F)c2)cc1-c1cnc2c(c1)OC1(CCOCC1)NC2=O
GI50 (NCI-H358 [1]): 8.7 µM | IC50 [2]: 0.028 µM

Cc1ccc(NC(=O)c2ccnc(C(F)(F)F)c2)cc1-c1ccc2c(c1)SC1(CCOCC1)CC2=O
GI50 (NCI-H358 [1]): 7.9 µM | IC50 [2]: 0.029 µM

Cc1ccc(NC(=O)c2ccnc(C(F)(F)F)c2)cc1-c1ccc2c(c1)OC1(CCOCC1)CC2
GI50 (NCI-H358 [1]): 13 µM | IC50 [2]: 0.036 µM

Cc1ccc(NC(=O)c2ccnc(C(F)(F)F)c2)cc1-c1ccc2c(c1)OC1(CCOCC1)CC2=O
IC50 (Cytochrome P450 3A4 [3]): > 30 µM | half-life [4]: 0.468 h | IC50 (Cytochrome P450 2C19): > 30 µM | CLH [5]: 52.2 µL/min/g | CLH [6]: 61.6 µL/min/g | Activity (NCI-H358 [7]): Active | GI50 (NCI-H358 [1]): 4.2 µM | IC50 [8]: 3.4 µM | IC50 (Cytochrome P450 2D6): > 30 µM | half-life [9]: 0.308 h | IC50 (Cytochrome P450 1A2): > 30 µM | CLH [10]: 18.3 µL/min/g | IC50 [2]: 0.015 µM | half-life [11]: 0.54 h | IC50 (Cytochrome P450 3A4 [12]): > 30 µM | IC50 (Cytochrome P450 2C9): > 30 µM | CLH [13]: 20.6 µL/min/g | half-life [14]: 0.135 h | solubility [15]: 0.46 µM (≈ 0.228 µg/mL)

Cc1ccc(NC(=O)c2ccnc(C(F)(F)F)c2)cc1-c1ccc2c(c1)OC1(CCOCC1)NC2=O
Vd [16]: 5.59 L/kg | IC50 (Cytochrome P450 3A4 [3]): > 30 µM | AUC(0-t) [17]: 1120 ng·h/mL | half-life [4]: 1.02 h | IC50 (Cytochrome P450 2C19): > 30 µM | GI50 (A-375): 2.9 µM | bioavailability [18]: 40% | CLH [5]: 32.7 µL/min/g | MRT inf [19]: 3.59 h | Cmax [20]: 52.1 ng/mL | MRT inf [21]: 4.35 h | CLH [6]: 45 µL/min/g | Papp [22]: < 0.018 ×10⁻⁶ cm/s | Activity (NCI-H358 [7]): Active | Cmax [23]: 1.48 ng/mL | bioavailability [24]: 24% | AUC(0-t) [25]: 517 ng·h/mL | half-life [26]: 4.57 h | GI50 (NCI-H358 [1]): 3.4 µM | GI50 (Calu-6): 3.9 µM | half-life [27]: 2.81 h | AUC(0-t) [28]: 688 ng·h/mL | IC50 [8]: 5.9 µM | IC50 (Cytochrome P450 2D6): > 30 µM | half-life [9]: 0.783 h | IC50 (Cytochrome P450 1A2): > 30 µM | CLH [10]: 13.7 µL/min/g | MRT inf [29]: 8.14 h | half-life [30]: 4.39 h | IC50 [2]: 0.0038 µM | half-life [11]: > 2.32 h | Tmax [31]: 1 h | IC50 (Cytochrome P450 3A4 [12]): > 30 µM | IC50 (Cytochrome P450 2C9): > 30 µM | MRT inf [32]: 1.74 h | Vd [33]: 5.87 L/kg | clearance [34]: 15 mL/min/kg | AUCt [35]: 546 ng·h/mL | CLH [13]: < 9.6 µL/min/g | half-life [14]: 0.485 h | IC50 [36]: 0.0294 µM | clearance [37]: 24.2 mL/min/kg | t1/2 [38]: 1.91 h | Tmax [39]: 4 h | IC50 [40]: 0.036 µM | solubility [15]: 0.7 µM (≈ 0.348 µg/mL)

Cc1ccc(NC(=O)c2ccnc(C(F)(F)F)c2)cc1-c1ccc2c(c1)OC1(CCOCC1)CC2NCCO (stereo unspecified)
GI50 (NCI-H358 [1]): 14 µM | IC50 [2]: 0.029 µM

Cc1ccc(NC(=O)c2ccnc(C(F)(F)F)c2)cc1-c1ccc2c(c1)OC1(COC1)NC2=O
GI50 (NCI-H358 [1]): 10 µM | IC50 [2]: 0.062 µM

Cc1ccc(NC(=O)c2ccnc(C(F)(F)F)c2)cc1-c1ccc2c(c1)C(=O)CC1(CCOCC1)O2
GI50 (NCI-H358 [1]): 9.7 µM | IC50 [2]: 0.037 µM

Cc1ccc(NC(=O)c2ccnc(C(F)(F)F)c2)cc1-c1ccc2c(c1)OC1(CCSCC1)NC2=O
GI50 (NCI-H358 [1]): 5.6 µM | IC50 [2]: 0.007 µM

Source: ChEMBL document CHEMBL5143623, “Discovery of novel spiro compound as RAF kinase inhibitor with in vitro potency against KRAS mutant cancer” (Bioorg Med Chem Lett, 2022)
